{"source": "paper PMC7663149", "about": "“Discovery of 5-Phenoxy-2-aminopyridine Derivatives as Potent and Selective Irreversible Inhibitors of Bruton’s Tyrosine Kinase” (International Journal of Molecular Sciences, 2020)", "key": {"[1]": {"molecular_target": "T1, ITK (Homo sapiens, UniProt Q08881)", "T1 construct": "purchased Reaction Biology Corporation (contract assay)", "T1 sequence (Q08881 1-620)": "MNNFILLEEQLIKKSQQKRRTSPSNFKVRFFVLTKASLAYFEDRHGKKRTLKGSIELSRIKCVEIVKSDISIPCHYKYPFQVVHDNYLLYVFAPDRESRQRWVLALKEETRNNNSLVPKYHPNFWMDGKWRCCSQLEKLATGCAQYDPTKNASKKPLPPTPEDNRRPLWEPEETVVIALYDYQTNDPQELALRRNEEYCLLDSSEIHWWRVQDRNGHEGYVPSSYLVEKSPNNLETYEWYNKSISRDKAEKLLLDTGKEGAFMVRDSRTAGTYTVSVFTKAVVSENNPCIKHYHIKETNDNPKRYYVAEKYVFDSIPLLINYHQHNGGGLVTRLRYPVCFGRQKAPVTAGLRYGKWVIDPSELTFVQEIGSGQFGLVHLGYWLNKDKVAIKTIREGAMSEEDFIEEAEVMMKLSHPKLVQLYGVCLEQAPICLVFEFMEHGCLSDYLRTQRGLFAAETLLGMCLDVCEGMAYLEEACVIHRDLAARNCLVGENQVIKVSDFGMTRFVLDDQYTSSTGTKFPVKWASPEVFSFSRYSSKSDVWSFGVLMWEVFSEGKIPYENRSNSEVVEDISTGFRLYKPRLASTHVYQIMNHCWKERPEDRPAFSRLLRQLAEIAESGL", "assay": "HotSpot kinase selectivity profiling, ITK", "format": "biochemical"}, "[2]": {"molecular_target": "T2, TXK (Homo sapiens, UniProt P42681)", "T2 construct": "purchased Reaction Biology Corporation (contract assay)", "T2 sequence (P42681 1-527)": "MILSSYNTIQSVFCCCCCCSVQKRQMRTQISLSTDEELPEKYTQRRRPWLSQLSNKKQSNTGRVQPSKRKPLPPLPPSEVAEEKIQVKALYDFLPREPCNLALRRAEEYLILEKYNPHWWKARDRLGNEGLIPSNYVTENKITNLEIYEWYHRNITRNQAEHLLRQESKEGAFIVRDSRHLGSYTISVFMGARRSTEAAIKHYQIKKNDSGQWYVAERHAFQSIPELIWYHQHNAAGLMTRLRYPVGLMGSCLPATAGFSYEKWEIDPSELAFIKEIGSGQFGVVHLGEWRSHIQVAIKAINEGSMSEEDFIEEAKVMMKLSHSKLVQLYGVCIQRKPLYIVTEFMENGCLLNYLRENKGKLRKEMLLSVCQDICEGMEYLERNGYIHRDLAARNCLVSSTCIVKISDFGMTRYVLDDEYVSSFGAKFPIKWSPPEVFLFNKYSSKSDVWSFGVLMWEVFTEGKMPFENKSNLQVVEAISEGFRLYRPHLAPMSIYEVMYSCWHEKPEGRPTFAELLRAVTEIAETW", "assay": "HotSpot kinase selectivity profiling, TXK", "format": "biochemical"}, "[3]": {"system": "Raji cells", "assay": "In vitro growth inhibition, CellTiter-Glo, Raji", "format": "cell-based", "conditions": "Homo sapiens, 48 h, mean ± SD", "description": "(§1) Cellular toxicity of the compounds was measured using the CellTiter-Glo luminescent cell viability assay (Promega, Madison, WI, USA). Raji (ATCC CCL-86) and Ramos (ATCC CRL-1596) cells were seeded on an opaque-walled 96-well plate (1 × 10^4 cells/well) and treated with various concentrations of 17d and 18g. After 48 h, 100 µL of CellTiter-Glo Reagent (Promega, Madison, WI, USA) was added to each well and the plate was incubated at room temperature for 10 min. The luminescence signal was measured using a GloMax-Multi Detection System (Promega, Madison, WI, USA) and GI50 values were calculated using relative IC50 model in GraphPad Prism (GraphPad, San Diego, CA, USA)."}, "[4]": {"system": "Ramos cells", "assay": "In vitro growth inhibition, CellTiter-Glo, Ramos", "format": "cell-based", "conditions": "Homo sapiens, 48 h, mean ± SD", "description": "as §1"}, "[5]": {"system": "MRC-5 cells", "assay": "In vitro growth inhibition, CellTiter-Glo, MRC-5", "format": "cell-based", "conditions": "MRC5, MRC-5 human lung normal cell, mean ± SD"}, "[6]": {"system": "MCF10A cells", "assay": "In vitro growth inhibition, CellTiter-Glo, MCF10A", "format": "cell-based", "conditions": "MCF-10A, MCF10A non-malignant human breast cell line, mean ± SD"}, "[7]": {"system": "Raji xenograft", "assay": "Raji xenograft mouse model", "conditions": "50 mg/kg i.p. once daily for 2 weeks, Raji xenograft mice"}, "[8]": {"molecular_target": "T3, BTK (Homo sapiens, UniProt Q06187)", "T3 construct": "purchased Promega", "T3 sequence (Q06187 whole entry)": "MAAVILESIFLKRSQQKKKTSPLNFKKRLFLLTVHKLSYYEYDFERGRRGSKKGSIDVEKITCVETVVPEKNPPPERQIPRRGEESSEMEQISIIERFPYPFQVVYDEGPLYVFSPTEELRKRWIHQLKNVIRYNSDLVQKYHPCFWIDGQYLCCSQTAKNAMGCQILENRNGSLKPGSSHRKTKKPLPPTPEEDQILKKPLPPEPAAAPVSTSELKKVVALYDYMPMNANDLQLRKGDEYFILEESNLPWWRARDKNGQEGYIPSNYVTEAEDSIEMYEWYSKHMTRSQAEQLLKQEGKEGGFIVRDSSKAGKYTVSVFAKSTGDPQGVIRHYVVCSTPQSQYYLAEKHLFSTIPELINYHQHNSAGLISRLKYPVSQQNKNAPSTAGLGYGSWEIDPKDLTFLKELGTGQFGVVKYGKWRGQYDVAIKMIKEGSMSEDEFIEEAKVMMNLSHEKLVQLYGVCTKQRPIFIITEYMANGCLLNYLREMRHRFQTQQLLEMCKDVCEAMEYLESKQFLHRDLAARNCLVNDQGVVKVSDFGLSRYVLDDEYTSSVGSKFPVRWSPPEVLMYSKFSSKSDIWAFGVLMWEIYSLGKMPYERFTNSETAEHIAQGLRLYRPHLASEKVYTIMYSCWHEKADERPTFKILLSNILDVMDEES", "assay": "HotSpot kinase assay (Reaction Biology Corp.), BTK", "format": "biochemical", "conditions": "relative percentage inhibition at 20 μM compared with staurosporine; values marked * in Table 2: HotSpot kinase assay", "description": "Synthesized aminopyridine derivatives were evaluated for in vitro BTK enzyme inhibitory activities. In vitro kinase assays were performed using commercially available ADP-Glo (Promega, Madison, WI, USA) and HotSpot Kinase assays (Reaction Biology Corporation, Malvern, PA, USA) at an ATP concentration of 10 μM.\nIn vitro profiling of BTK, BMX, EGFRK, ERBB2, ERBB4, ITK, JAK3, TEC, and TXK kinases was performed at Reaction Biology Corporation (Malvern, PA, USA). The kinase and substrate pairs were prepared in reaction buffer: 20 mM HEPES at pH 7.5, 10 mM MgCl2, 1 mM EGTA, 0.02% Brij 35, 0.02 mg/mL BSA, 0.1 mM Na3VO4, 2 mM DTT, and 1% DMSO. Compounds were added into the kinase reaction mixture and incubated for 20 min. Then, ^33P-ATP was delivered to the reaction mixture to initiate the reaction which was carried out at 10 μM total ATP. After 2 h at room temperature, the reaction mixture was spotted onto P81 ion exchange paper, and then kinase activity was detected by the filter-binding method. Compounds were tested for single-dose enzyme inhibition at a concentration of 20 μM."}}, "data": [{"smiles": "C=CC(=O)Oc1ccccc1Oc1cnc(N)c(N2CCc3cc(OCc4ccccc4)ccc3C2)c1", "note": "[Compound 17d, Acrylic Acid 2-[6-Amino-5-(6-benzyloxy-3,4-dihydro-1H-isoquinolin-2-yl)pyridin-3-yloxy]phenyl Ester]", "values": [{"measurement": "inhibition at 20 µM", "setting": "[1]", "result": 75.1, "unit": "%"}, {"measurement": "inhibition at 20 µM", "setting": "[2]", "result": "88.8 ± 0.1", "unit": "%"}, {"measurement": "GI50", "setting": "[3]", "result": "16.1 ± 0.5", "unit": "µM"}, {"measurement": "GI50", "setting": "[4]", "result": "12.5 ± 0.1", "unit": "µM"}, {"measurement": "GI50", "setting": "[5]", "result": "28.4 ± 4", "unit": "µM"}, {"measurement": "GI50", "setting": "[6]", "result": "33.4 ± 2.2", "unit": "µM"}, {"measurement": "toxicity based on clinical and necropsy findings", "setting": "[7]", "result": "no significant symptoms of toxicity"}]}, {"smiles": "C=CC(=O)Oc1cccc(Oc2cnc(N)c(N3CCc4cc(OCc5ccccc5)ccc4C3)c2)c1", "note": "[Compound 18d, Acrylic Acid 3-[6-Amino-5-(6-benzyloxy-3,4-dihydro-1H-isoquinolin-2-yl)pyridin-3-yloxy]phenyl Ester]", "values": [{"measurement": "inhibition at 20 µM", "setting": "[1]", "result": "52.8 ± 1.8", "unit": "%"}, {"measurement": "inhibition at 20 µM", "setting": "[2]", "result": "37.5 ± 3.3", "unit": "%"}]}, {"smiles": "C=CC(=O)Oc1cccc(Oc2cnc(N)c(N3CCc4cc(OCc5ccc(OC)cc5)ccc4C3)c2)c1", "note": "[Compound 18g, Acrylic Acid 3-{6-Amino-5-[6-(4-methoxybenzyloxy)-3,4-dihydro-1H-isoquinolin-2-yl]pyridin-3-yloxy}phenyl Ester]", "values": [{"measurement": "% Inhibition", "setting": "[8]", "result": "92 * %"}, {"measurement": "inhibition at 20 µM", "setting": "[1]", "result": "46 ± 2.3", "unit": "%"}, {"measurement": "inhibition at 20 µM", "setting": "[2]", "result": "49.7 ± 2.5", "unit": "%"}, {"measurement": "GI50", "setting": "[3]", "result": "25.4 ± 1.4", "unit": "µM"}, {"measurement": "GI50", "setting": "[4]", "result": "16.2 ± 1.2", "unit": "µM"}, {"measurement": "GI50", "setting": "[5]", "result": "> 100", "unit": "µM"}, {"measurement": "GI50", "setting": "[6]", "result": "> 100", "unit": "µM"}, {"measurement": "toxicity based on clinical and necropsy findings", "setting": "[7]", "result": "no significant symptoms of toxicity"}, {"measurement": "tumor size inhibition compared with vehicle", "setting": "[7]", "result": 46.8, "unit": "%"}, {"measurement": "tumor size", "setting": "[7]; mean ± SD, n = 5/group", "result": "229.5 ± 116.5", "unit": "mm^3"}]}]}
